Laboratory results: patent US8765702B2, “Composition and methods for modulating cell proliferation and cell death” (Rosetta Genomics Ltd., priority 2007, dated 2014)
Blank lines part the entries; values can stand above or below the molecule they belong to.

Tests used:
[1] = test system: U2OS cells; test: Apoptosis by microscopy and FACS-based sub-G1 DNA content; assay type: cell-based, human
[2] = test system: Notch pathway in A172 cells; test: qRT-PCR of Notch pathway mRNAs (DLL1, Jag1, Notch1, Hey1); assay type: cell-based; conditions: 72 hours after transfection; for mRNA levels of DLL1, Jag1 or Notch1: normalized to GAPDH
Protocol: (B) A172 cells were transfected with either scrambled or anti-miR-34a LNA oligos. RNA was isolated 72 hours later, and subjected to qRT-PCR to determine relative levels of expression of DLL1, Jag1 and Notch1 (normalized to GAPDH).
(C) A172 cells were transfected with pcDNA3-pm34a-EST-MUT (MUT) or pcDNA3-pm34a-EST (EST). RNA extraction and analysis was as in (B).
(§1) RNA quantification was performed by real-time qRT-PCR in an ABI PRISM 7300 Sequence Detection System (Applied Biosystems) with SYBR Green Master Mix (Applied Biosystems). For mRNA quantification, cDNA produced with random hexamers and MMLV reverse transcriptase (Promega) from 10 ng of total RNA was subjected to RT-PCR using super SYBR-green ready mix (Applied Biosystems) and specific DNA primers (Table 1 for the EST, Table 2 for p21, Hdm2, GAPDH and HPRT). For small RNAs (U6, 5S, microRNAs), 50 ng total RNA was converted to cDNA using specific primers for reverse transcription (Ambion) and MMLV reverse transcriptase. Relative expression levels were determined by real-time qRT-PCR using super SYBR-green ready mix and specific primers (Ambion). Quantification was done using standard curves. All reactions were performed in duplicate.
A complementary, opposite effect on Hey1 expression was seen when miR-34a was over-expressed in A172 cells.

[3] = test system: Notch pathway in MCF7 cells; test: as above; assay type: cell-based, human
Protocol: (D) MCF7 cells were transfected with scramble or anti-miR-34a LNA oligos. 24 h post-transfection, 20 μM Nutlin-3 was added to the half of the samples for additional 48 h. RNA extraction and analysis was as in (B).
as §1

[4] = test system: EST-Prom-luc (miR-34a putative promoter); test: Dual luciferase assay with EST-Prom-luc in HCT116 cells; assay type: cell-based, human; conditions: HCT116 control (siLacZ) cells, 5-FU for 16 hours
[5] = test system: p53 binding to the pm34a-EST p53BS; test: Chromatin immunoprecipitation (ChIP); assay type: cell-based, human; conditions: HCT116 cells, 50 μg/ml 5-FU for 16 hours
Protocol: (A) HCT116 cells stably expressing shRNA specific for p53 (sip53) or for LacZ (siLacZ) were either left untreated or treated for 16 hours with 50 μg/ml 5-FU, and then subjected to ChIP analysis with antibodies directed against p53 or HA as a control. The precipitated DNA was subjected to quantitative real-time PCR analysis with primers spanning the 5′ p53BS of the p21 gene, the putative p53BS of the pm34a-EST, or the GAPDH gene as a negative control. (B) Schematic representation of the DNA fragment (thick bar) cloned into the luciferase reporter plasmid. The positions of the p53BS and exons 1 and 2 of the pm34a-EST are also indicated. (C) The putative promoter of the pm34a-EST was cloned upstream to the firefly luciferase reporter gene in the pGL3-basic vector to yield plasmid EST-Prom-luc. EST-Prom-luc was transfected into H1299 cells without or with the indicated amounts of p53 expression plasmid. Luciferase activity was then measured by the dual luciferase assay, and normalized for Renilla luciferase activity. […]
ChIP analysis was performed as described (Minsky, 2004), employing the CM1 p53-specific polyclonal antibody or anti-HA polyclonal antibody as a control. […] Quantification of precipitated DNA was preformed by real-time qPCR, using an ABI PRISM 7300 Sequence Detection System. […]

[6] = test system: pm34a-EST, miR-34a and p21 mRNA in H1299-TS cells; test: qRT-PCR of p53-dependent induction in the presence of cycloheximide; assay type: cell-based, human; conditions: H1299-TS cells shifted to 32° C., 80 nM CHX
Protocol: (A) H1299 and 111299-TS cells were either left untreated or supplemented with 80 nM cycloheximide (CHX) for 30 min before being shifted to either 37° C. or 32° C. Cells were then incubated for the indicated time periods with continuous exposure to the drug. RNA was isolated and subjected to qRT-PCR analysis with primers specific for pm34a-EST. Values were normalized for HPRT in the same samples. (B) H1299-TS cells were processed essentially as in (A), except that CHX was added only where indicated. RNA was subjected to qRT-PCR with primers specific for mature miR-34a. Values were normalized for U6 RNA in the same samples. (C) The same RNA samples as in (B) were subjected to qRT-PCR analysis with primers specific for p21 mRNA. […]
as §1, with “For small RNAs (U6, 5S, microRNAs), 50 ng total RNA was converted to cDNA using specific primers for reverse transcription (Ambion) and MMLV reverse transcriptase.” left out, “All reactions were performed in duplicate.” left out

[7] = test system: Bcl-2; test: Western blot analysis of Bcl-2 protein; assay type: cell-based, human; conditions: H1299 or U2OS cells, 100 nM pre-miR-34a RNA oligonucleotides, three days post-transfection
Protocol: (§2) (A) H1299 or U2OS cells were transiently transfected with 100 nM control scrambled RNA (cont) or pre-miR-34a RNA oligonucleotides (pre-34a, Ambion) using siPORT NeoFX transfection reagent (Ambion). Three days post-transfection, cell extracts were prepared. 30 μg of total protein was subjected to SDS-15% polyacrylamide gel electrophoresis followed by Western blot analysis with antibodies directed against GAPDH (MAB374, Chemicon) and Bcl-2 (C-2, Santa Cruz). (B) Total RNA was extracted from identical cultures as in (A) using the mirVana miRNA isolation kit (Ambion). RNA was converted to cDNA using random hexamers and MMLV reverse transcriptase (Promega). cDNA obtained from 10 ng total RNA was subjected to real-time PCR analysis using specific primers for Bcl-2 mRNA (forward primer—5′-[…]-3′ (SEQ ID NO: 42), reverse primer—5′-ATCAAACAGAGGCCGCATG-3′ (SEQ ID NO: 43) and super SYBR-green ready mix (Applied Biosystems) in an ABI PRISM 7300 Sequence Detection System (Applied Biosystems). Bcl-2 mRNA levels were normalized relative to GAPDH mRNA (forward primer—5′-[…]-3′ (SEQ ID NO: 44), reverse primer—5′-AAAAGCAGCCCTGGTGACC-3′) (SEQ ID NO: 45) in the same samples. RU=relative units. (C) 200 ng of total RNA obtained from (B) was subjected to quantitative real-time RT-PCR using primers for mature miR-34a. Values were normalized relative to U6 RNA levels in the same samples. […]

[8] = test system: Bcl-2 mRNA; test: Real-time PCR analysis of Bcl-2 mRNA; assay type: cell-based, human; conditions: H1299 or U2OS cells, 100 nM pre-miR-34a RNA oligonucleotides, normalized to GAPDH mRNA
Protocol: as §2

[9] = test system: p53 mRNA and p21 mRNA in U2OS cells; test: qRT-PCR analysis of p53 mRNA and p21 mRNA after Nutlin-3; assay type: cell-based, human; conditions: 20 μM Nutlin-3 for 48 h, normalized to HPRT
Protocol: (A) HCT116 cells stably expressing shRNA against p53 (sip53) or LacZ (siLacZ) were either treated with 50 μg/ml 5-FU for 16 h or left untreated. […] total RNA from each sample was subjected to qRT-PCR analysis of p21 mRNA. Results were normalized to HPRT expression in the same samples. (B) U2OS cells stably expressing shRNA against p53 (sip53) or LacZ (siLacZ) were either treated with 20 μM Nutlin-3 for 48 h or left untreated. RNA from each sample was subjected to qRT-PCR analysis of p53 mRNA and p21 mRNA. […] The modest increase in p53 mRNA (1.8 fold) has not been further investigated. (C) Western blot analysis of 20 μg total protein extracted from parallel cultures treated as in (A). […]
as §1, with “For small RNAs (U6, 5S, microRNAs), 50 ng total RNA was converted to cDNA using specific primers for reverse transcription (Ambion) and MMLV reverse transcriptase.” left out, “All reactions were performed in duplicate.” left out

Molecule: 5′-aacaaccagctaagacactgcca-3′ (antisense AACAACCAGCTAAGACACTGCCA; LNA-modified, pattern not given here) [LNA anti-miR-34a]
protection from apoptosis in p53 knockdown cells ([1]; U2OS cells stably expressing p53 shRNA (sip53)): not observed
spontaneous apoptosis ([1]; U2OS cells, 100 nM LNA, versus scrambled oligonucleotide): decrease in spontaneous apoptosis
apoptosis due to Nutlin-3 treatment ([1]; U2OS siLacZ cells, 100 nM LNA with 20 μM Nutlin-3 for 48 hours): partial protection
expression of Hey1 [2]: up-regulation
mRNA levels of DLL1, Jag1 or Notch1 [2]: no effect
expression of Hey1 following p53 activation ([3]; 20 μM Nutlin-3 for 48 h): stronger effect
expression of Hey1 ([3]; versus scrambled LNA): up-regulation
mRNA levels of DLL1, Jag1 or Notch1 ([3]; versus scrambled LNA): no effect

p53 binding to the pm34a-EST p53BS [5]: further augmented
Molecule: O=c1[nH]cc(F)c(=O)[nH]1 [5-FU, 5 fluorouracil]
luciferase activity [4]: nearly twofold increase

Molecule: C[C@@H]1C[C@@H]([C@H](O)CC2CC(=O)NC(=O)C2)C(=O)[C@@H](C)C1 [CHX, cycloheximide]
induction of pm34a-EST or mature miR-34a [6]: did not prevent the induction
p21 mRNA induction [6]: nor did it affect

Molecule: miR-34a: microRNA SEQ ID NO: 1; overexpressed via pcDNA3-pm34a-EST (A172) or pre-miR-34a RNA oligonucleotides, Ambion (Bcl-2 study) (UGGCAGUGUCUUAGCUGGUUGUU; listed as RNA, chemistry not fully specified; listed as Homo sapiens)
expression of Hey1 [2]: reduction in Hey1 mRNA
mRNA levels of DLL1, Jag1 or Notch1 [2]: absence of any change
Bcl-2 protein [7]: decreased
Bcl-2 mRNA [8]: without a measurable decrease

Molecule: COc1ccc(C2=N[C@@H](c3ccc(Cl)cc3)[C@@H](c3ccc(Cl)cc3)N2C(=O)N2CCNC(=O)C2)c(OC(C)C)c1 [Nutlin-3]
p21 mRNA increase [9]: 10.3 fold
p53 mRNA increase [9]: 1.8 fold
apoptosis ([1]; U2OS cells, 20 μM Nutlin-3 for 48 hours): enhanced apoptosis
Jag1 and Notch1 mRNA levels ([3]; 20 μM Nutlin-3 for 48 h): induction
